Source: patent US20230391739A1, “ARYL DERIVATIVES FOR TREATING TRPM3 MEDIATED DISORDERS” (Katholieke Universiteit Leuven, priority 2020, published 2023)

Molecular target: T1, mouse TRPM3α2 (mTRPM3) ion channel (Mus musculus, UniProt J9SQF3)
T1 construct: expressed in transfected cells; host or cells: flip-in HEK293
Test: TRPM3 ion channel driven Ca2+ uptake, Fluo-4 AM assay, PS-stimulated (mTRPM3)
Format: cell-based
Conditions: TRPM3 overexpressing flip-in HEK293 cells stimulated with Pregnenolone sulfate (PS) 50 μM, activity ranges A, B, C
Method in brief: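 Ca²⁺ influx through mouse TRPM3α2, opened by 50 μM pregnenolone sulfate, was tracked with Fluo-4 AM in stably transfected HEK293 cells read directly after seeding onto pre-dispensed compound.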

T1 sequence (J9SQF3 1-1709 isoform J9SQF3-12): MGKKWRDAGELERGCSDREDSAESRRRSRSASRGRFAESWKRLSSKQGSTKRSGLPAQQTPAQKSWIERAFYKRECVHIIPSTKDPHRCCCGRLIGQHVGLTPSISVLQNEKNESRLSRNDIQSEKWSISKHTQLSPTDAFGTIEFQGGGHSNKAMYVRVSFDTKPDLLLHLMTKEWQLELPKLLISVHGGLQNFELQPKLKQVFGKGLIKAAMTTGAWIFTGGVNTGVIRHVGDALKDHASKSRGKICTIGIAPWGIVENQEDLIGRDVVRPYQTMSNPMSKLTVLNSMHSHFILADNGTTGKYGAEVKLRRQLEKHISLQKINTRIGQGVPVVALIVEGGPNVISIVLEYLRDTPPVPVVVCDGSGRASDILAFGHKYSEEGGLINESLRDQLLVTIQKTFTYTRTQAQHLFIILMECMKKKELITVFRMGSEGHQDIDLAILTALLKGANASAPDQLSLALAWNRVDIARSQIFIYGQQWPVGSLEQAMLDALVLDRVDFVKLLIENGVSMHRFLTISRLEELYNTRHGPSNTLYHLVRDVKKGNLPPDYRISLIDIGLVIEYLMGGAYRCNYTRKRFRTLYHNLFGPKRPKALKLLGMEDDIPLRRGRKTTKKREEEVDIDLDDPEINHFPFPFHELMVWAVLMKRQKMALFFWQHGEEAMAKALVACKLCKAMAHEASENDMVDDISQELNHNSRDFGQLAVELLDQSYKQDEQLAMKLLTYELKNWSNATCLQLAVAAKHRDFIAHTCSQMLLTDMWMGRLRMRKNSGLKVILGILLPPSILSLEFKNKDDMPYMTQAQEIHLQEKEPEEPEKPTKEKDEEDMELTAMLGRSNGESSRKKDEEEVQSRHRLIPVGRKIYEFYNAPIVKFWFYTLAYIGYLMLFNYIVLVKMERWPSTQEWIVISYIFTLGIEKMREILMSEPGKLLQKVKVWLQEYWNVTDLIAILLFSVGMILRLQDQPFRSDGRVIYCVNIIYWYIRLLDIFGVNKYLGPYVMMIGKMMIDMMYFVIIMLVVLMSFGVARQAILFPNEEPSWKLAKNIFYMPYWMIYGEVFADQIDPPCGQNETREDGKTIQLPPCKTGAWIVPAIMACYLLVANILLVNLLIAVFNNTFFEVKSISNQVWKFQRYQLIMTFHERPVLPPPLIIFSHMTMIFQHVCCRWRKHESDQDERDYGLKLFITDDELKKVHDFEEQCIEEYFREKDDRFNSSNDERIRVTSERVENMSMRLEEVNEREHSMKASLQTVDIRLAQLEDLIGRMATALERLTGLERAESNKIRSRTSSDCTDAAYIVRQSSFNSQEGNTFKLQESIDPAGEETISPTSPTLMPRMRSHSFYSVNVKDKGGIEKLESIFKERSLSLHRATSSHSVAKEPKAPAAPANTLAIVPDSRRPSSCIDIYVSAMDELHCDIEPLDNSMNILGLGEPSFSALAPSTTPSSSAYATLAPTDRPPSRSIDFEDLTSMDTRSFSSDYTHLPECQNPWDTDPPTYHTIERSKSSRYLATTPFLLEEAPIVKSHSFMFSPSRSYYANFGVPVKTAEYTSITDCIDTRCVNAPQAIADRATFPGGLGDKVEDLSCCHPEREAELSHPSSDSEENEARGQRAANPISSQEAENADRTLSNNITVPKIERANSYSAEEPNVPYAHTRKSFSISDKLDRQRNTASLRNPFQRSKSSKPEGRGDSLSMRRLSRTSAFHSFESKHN

Row | Structure (SMILES) | IC50
1 | Cc1oc2ccc(OC(CO)c3ccccc3F)cc2c1C(=O)NC1(C(N)=O)CCC1 (single isomer, unassigned) [Cpd 345-En 2, N-(1-carbamoylcyclobutyl)-5-(1-(2-fluorophenyl)-2-hydroxyethoxy)-2-methylbenzofuran-3-carboxamide] | < 1000 nM
2 | CCc1oc2ccc(OCc3cccc(F)c3)cc2c1C(=O)NC1CCN(C)CC1 [Cpd 194, 2-ethyl-5-((3-fluorobenzyl)oxy)-N-(1-methylpiperidin-4-yl)benzofuran-3-carboxamide] | 1000 to 20000 nM
3 | Cc1oc2ccc(OCc3ccccc3)cc2c1C(=O)N[C@H]1CC2CC[C@H](C1)N2C(=O)OC(C)(C)C [Cpd 258, tert-butyl (1R,3s,5S)-3-(5-(benzyloxy)-2-methylbenzofuran-3-carboxamido)-8-azabicyclo-[3.2.1]octane-8-carboxylate] | < 1000 nM
4 | Cc1oc2c(C)cc(OCc3ccccc3)cc2c1C(=O)NC1CNCC1(F)F (single isomer, unassigned) [Cpd 307-En 1, 5-(benzyloxy)-N-(4,4-difluoropyrrolidin-3-yl)-2,7-dimethylbenzofuran-3-carboxamide] | 1000 to 20000 nM
5 | Cc1oc2ccc(OCc3ccccc3)cc2c1C(=O)N[C@@H]1C[C@H]2CCC[C@@H](C1)N2 [Cpd 184, 5-(benzyloxy)-N-((1R,3s,5S)-9-azabicyclo[3.3.1]nonan-3-yl)-2-methylbenzofuran-3-carboxamide] | < 1000 nM
6 | Cc1oc2ccc(OC(CO)c3ccccc3)cc2c1C(=O)NC1(CO)CCOCC1 (single isomer, unassigned) [Cpd 317-En 1, 5-(2-hydroxy-1-phenylethoxy)-N-(4-(hydroxymethyl)tetrahydro-2H-pyran-4-yl)-2-methylbenzofuran-3-carboxamide] | < 1000 nM
7 | Cc1oc2ccc(OCc3ccc(C(F)(F)F)cc3)cc2c1C(=O)NC1CCN(C)CC1 [Cpd 234, 2-methyl-N-(1-methylpiperidin-4-yl)-5-((4-(trifluoromethyl)benzyl)oxy)benzofuran-3-carboxamide] | 1000 to 20000 nM
8 | Cc1oc2ccc(OC(CO)c3ccccc3F)cc2c1C(=O)N[C@@H](CO)C(N)=O (single isomer, unassigned) [Cpd 335-Dia 1] | < 1000 nM
9 | Cc1oc2ccc(OCc3ccccc3)cc2c1C(=O)N1CCCC(N(C)C)C1 (stereo not shown) [Cpd 150, (5-(benzyloxy)-2-methylbenzofuran-3-yl)(3-(dimethylamino)piperidin-1-yl)methanone] | > 20000 nM
10 | Cc1oc2ccc(OCc3ccccc3F)cc2c1C(=O)NC1(CO)CCNC1=O (single isomer, unassigned) [Cpd 334-En 2] | < 1000 nM
11 | Cc1oc2ccc(OCc3ccccc3S(C)(=O)=O)cc2c1C(=O)NC1CCNCC1(F)F (single isomer, unassigned) [Cpd 333-En 2, N-(3,3-difluoropiperidin-4-yl)-2-methyl-5-((2-(methylsulfonyl)benzyl)oxy)benzofuran-3-carboxamide] | < 1000 nM
12 | Cc1oc2ccc(OCc3ccccc3F)cc2c1C(=O)NC1CCNC1=O (stereo not shown) [Cpd 129, 5-((2-fluorobenzyl)oxy)-2-methyl-N-(2-oxopyrrolidin-3-yl)benzofuran-3-carboxamide] | < 1000 nM
13 | Cc1oc2ccc(OC(CN(C)C)c3ccccc3)cc2c1C(=O)N[C@@H](CO)C(N)=O (single isomer, unassigned) [Cpd 347-En 2] | < 1000 nM
14 | Cc1oc2ccc(OCc3ccccc3)cc2c1C(=O)NC1CCN(C(=O)OC(C)(C)C)CC1(F)F (stereo not shown) [Cpd 263, tert-butyl 4-(5-(benzyloxy)-2-methylbenzofuran-3-carboxamido)-3,3-difluoropiperidine-1-carboxylate] | < 1000 nM
15 | CN1CCC(NC(=O)c2coc3ccc(OCc4ccccc4)cc23)CC1 [Cpd 081, 5-(benzyloxy)-N-(1-methylpiperidin-4-yl)benzofuran-3-carboxamide] | 1000 to 20000 nM
16 | Cc1oc2ccc(OCc3ccccc3F)cc2c1C(=O)NC(C)(C)CO [Cpd 313, 5-((2-fluorobenzyl)oxy)-N-(1-hydroxy-2-methylpropan-2-yl)-2-methylbenzofuran-3-carboxamide] | < 1000 nM
17 | Cc1oc2ccc(COc3ccccc3F)cc2c1C(=O)NC(C)(C)CO [Cpd 319, 5-((2-fluorophenoxy)methyl)-N-(1-hydroxy-2-methylpropan-2-yl)-2-methylbenzofuran-3-carboxamide] | 1000 to 20000 nM
18 | Cc1oc2ccc(OCc3cccc(F)c3)cc2c1C(=O)NC1CCN(C)CC1 [Cpd 168, 5-((3-fluorobenzyl)oxy)-2-methyl-N-(1-methylpiperidin-4-yl)benzofuran-3-carboxamide] | 1000 to 20000 nM
19 | Cc1oc2ccc(OCc3c(F)cccc3Cl)cc2c1C(=O)N(C)C [Cpd 065, 5-((2-chloro-6-fluorobenzyl)oxy)-N,N,2-trimethylbenzofuran-3-carboxamide] | 1000 to 20000 nM
20 | Cc1oc2ccc(OCc3cccc(C(F)(F)F)c3)cc2c1C(=O)O [Cpd 025, 2-methyl-5-((3-(trifluoromethyl)benzyl)oxy)benzofuran-3-carboxylic acid] | 1000 to 20000 nM
21 | Cc1oc2ccc(OCc3ccccc3F)cc2c1C(=O)NC(CO)C(N)=O (single isomer, unassigned) [Cpd 314-En 1] | < 1000 nM
22 | Cc1ccc(COc2ccc3oc(C)c(C(=O)NS(=O)(=O)C4CC4)c3c2)cc1 [Cpd 169, N-(cyclopropylsulfonyl)-2-methyl-5-((4-methylbenzyl)oxy)benzofuran-3-carboxamide] | 1000 to 20000 nM
23 | Cc1cc(C)c(CNC(=O)c2c(C)oc3ccc(OCc4ccccc4)cc23)c(=O)[nH]1 [Cpd 200, 5-(benzyloxy)-N-((4,6-dimethyl-2-oxo-1,2-dihydropyridin-3-yl)methyl)-2-methylbenzofuran-3-carboxamide] | > 20000 nM
24 | Cc1oc2c(F)cc(OCc3ccccc3)cc2c1C(=O)NC1CNCC1(F)F (single isomer, unassigned) [Cpd 306-En 2] | 1000 to 20000 nM
25 | Cc1oc2cc(C#N)c(OCc3ccccc3)cc2c1C(=O)NC1CNCC1(F)F (single isomer, unassigned) [Cpd 301-En 2, 5-(benzyloxy)-6-cyano-N-(4,4-difluoropyrrolidin-3-yl)-2-methylbenzofuran-3-carboxamide] | > 20000 nM

Continued, values first:

Row | IC50 | Structure (SMILES)
26 | < 1000 nM | Cc1oc2ccc(OCc3ccccc3)cc2c1C(=O)NC1CCCNC1 (stereo not shown) [Cpd 075, 5-(benzyloxy)-2-methyl-N-(piperidin-3-yl)benzofuran-3-carboxamide]
27 | 1000 to 20000 nM | Cc1oc2ccc(OCc3ccccc3)cc2c1C(=O)NC1CCN(CCN(C)C)CC1 [Cpd 225, 5-(benzyloxy)-N-(1-(2-(dimethylamino)ethyl)piperidin-4-yl)-2-methylbenzofuran-3-carboxamide]
28 | 1000 to 20000 nM | Cc1oc2ccc(OCc3ccccc3)cc2c1C(=O)NS(C)(=O)=O [Cpd 063, 5-(benzyloxy)-2-methyl-N-(methylsulfonyl)benzofuran-3-carboxamide]
29 | < 1000 nM | Cc1oc2ccc(OCc3ccccc3)cc2c1C(=O)NC1CNCCC1F (single isomer, unassigned) [Cpd 130-Dia 1]
30 | > 20000 nM | Cc1oc2ccc(OCc3ccccc3)cc2c1C(=O)NCc1ccccc1 [Cpd 098, N-benzyl-5-(benzyloxy)-2-methylbenzofuran-3-carboxamide]
31 | < 1000 nM | Cc1oc2ccc(OCc3ccccc3F)cc2c1C(=O)N[C@H]1CCNC1 [Cpd 095, (S)-5-((2-fluorobenzyl)oxy)-2-methyl-N-(pyrrolidin-3-yl)benzofuran-3-carboxamide]
32 | 1000 to 20000 nM | Cc1oc2ccc(OCc3ccccc3)cc2c1C(=O)NC1CC1 [Cpd 039, 5-(benzyloxy)-N-cyclopropyl-2-methylbenzofuran-3-carboxamide]
33 | < 1000 nM | Cc1oc2ccc(OCc3ccccc3)cc2c1C(=O)N[C@@H]1CCN(C)C1 [Cpd 080, (R)-5-(benzyloxy)-2-methyl-N-(1-methylpyrrolidin-3-yl)benzofuran-3-carboxamide]
34 | < 1000 nM | Cc1oc2ccc(OCc3ccccc3)cc2c1C(=O)NC1CCCNC1=O (stereo not shown) [Cpd 113, 5-(benzyloxy)-2-methyl-N-(2-oxopiperidin-3-yl)benzofuran-3-carboxamide]
35 | < 1000 nM | Cc1oc2ccc(OCc3ccccc3)cc2c1C(=O)NC1CNCC1(F)F (stereo not shown) [Cpd 137, 5-(benzyloxy)-N-(4,4-difluoropyrrolidin-3-yl)-2-methylbenzofuran-3-carboxamide]
36 | < 1000 nM | Cc1oc2ccc(OCc3ccccc3)cc2c1C(=O)NO [Cpd 036, 5-(benzyloxy)-N-hydroxy-2-methylbenzofuran-3-carboxamide]
37 | < 1000 nM | COC(=O)[C@@H]1C[C@H](NC(=O)c2c(C)oc3ccc(OCc4ccccc4)cc23)CN1 [Cpd 191, methyl (2S,4S)-4-(5-(benzyloxy)-2-methylbenzofuran-3-carboxamido)pyrrolidine-2-carboxylate]
38 | < 1000 nM | CCN1CCC(NC(=O)c2c(C)oc3ccc(OCc4ccccc4)cc23)CC1 [Cpd 151, 5-(benzyloxy)-N-(1-ethylpiperidin-4-yl)-2-methylbenzofuran-3-carboxamide]
39 | < 1000 nM | Cc1oc2ccc(OCc3ccccc3)cc2c1C(=O)NC1CCNC(C)C1 (racemic) [Cpd 114, rac-5-(benzyloxy)-2-methyl-N-(trans-2-methylpiperidin-4-yl)benzofuran-3-carboxamide]
40 | < 1000 nM | Cc1oc2ccc(OCc3ccccc3)cc2c1C(=O)N[C@H]1CCNC1 [Cpd 049, (S)-5-(benzyloxy)-2-methyl-N-(pyrrolidin-3-yl)benzofuran-3-carboxamide]
41 | < 1000 nM | Cc1oc2ccc(OCc3ccccc3)cc2c1C(=O)N[C@@H]1CCNC1=O [Cpd 070, 5-(benzyloxy)-2-methyl-N-(2-oxopyrrolidin-3-yl)benzofuran-3-carboxamide]
42 | < 1000 nM | Cc1oc2ccc(OCc3ccccc3)cc2c1C(=O)NCC1CCCO1 (stereo not shown) [Cpd 087, 5-(benzyloxy)-2-methyl-N-((tetrahydrofuran-2-yl)methyl)benzofuran-3-carboxamide]
43 | < 1000 nM | Cc1oc2ccc(OCc3ccccc3)cc2c1C(=O)N[C@H]1C[C@H](O)C1 [Cpd 053, 5-(benzyloxy)-N-(trans-3-hydroxycyclobutyl)-2-methylbenzofuran-3-carboxamide]
